# Peptide text beside a SMILES is read from it. * marks the point of attachment. 5FAM = O=C1OC2(c3ccc(O)cc3Oc3cc(O)ccc32)c2ccc(C(=O)*)cc21
# Key:
# [1] = tested on: FZD CRD-Fc; experiment: binding of 5FAM peptides to the FZD CRD-Fc panel
# Procedure: Control experiments using 5FAM-Fz7-21S were performed in parallel. 5FAM-Fz7-21 or 5FAM-Fz721S was incubated with each of the aforementioned FZD CRD-Fcs overnight at 4° C. in PBS and resolved via SEC.
# In FIGS. 3A-3I, 5FAM-Fz7-21 or 5FAM-Fz7-21S (50 nM in PBS) was incubated with increasing concentration of FZD CRD-Fc (2-fold serial dilutions), and fluorescence intensity was measured using either a Monolith NT.115 or NT.115Pico instrument (NanoTemper Technologies). EC50 values represent the 95% confidence interval of at least three independent experiments, excepting hFZD1 CRD-Fc+5FAM-Fz7-21S, which was done twice. EC50 ovalues were calculated with Prism Graphpad using the Log(agonist) vs. response [variable slope (four parameters) function: Y=Bottom+(Top-Bottom)/(1+10^((Log EC−X)*HillSlope))]. Plotted values represent the mean±s.e.m.
# [2] = tested on: FZD CRD-Fc proteins; experiment: fluorescence size-exclusion chromatography (FSEC) with FZD CRD-Fc proteins; format: binding; details: 1 μM peptide, 250 nM FZD CRD-Fc, overnight at 4° C.; FZD1, FZD2 and FZD7 CRD-Fc
# Procedure: (§1) Fluorescence size-exclusion chromatography (FSEC) experiments were run using an AKTA FPLC system (General Electric Company) with UNICORN software package (version 5.31). Samples were resolved using a SEC3000 or SEC2000 (Phenomenex; Torrence, Calif.) column at 0.5 mL/min in phosphate buffer. Fluorescence was monitored using a FP-2020 Plus fluorescence detector (Jasco Analytical Instruments, Easton, Md.) in normal mode (excitation/emission, […]; gain=100; STD=32). All samples were prepared with a final DMSO concentration of 1% and incubated overnight at 4° C. prior to sample separation. FZD CRD-Fc samples were kept at ˜250 nM in the presence of excess 5FAM labeled peptide (1 μM). […]
# Selective targeting of the FZD7 receptor subclass was also observed chromatographically. […] See FIGS. 4A and 4B, which provide representative fluorescence traces of 1 μM 5FAM-Fz7-21 and 1 μM 5FAM-Fz7-21S, respectively, incubated with various FZD CRD-Fc proteins (250 nM) overnight at 4° C. prior to analysis by FSEC. […] In FIG. 24A, molecular weight (MW) standards analyzed by UV absorption were plotted as a function of elution volume (Ve) over void volume (Vo). […] Measured values represent the mean±standard deviation (SD) of three independent experiments. […] Binding to recombinant FZD3 and 6 CRDs could not be assessed due to challenges with the expression of these proteins. […]
# [3] = tested on: human sFRP1, sFRP2, sFRP3, sFRP4, or sFRP5; experiment: FSEC with secreted Frizzled-related proteins; format: binding; details: sFRP ~250 nM, peptide 10 μM
# Procedure: as §1, with “μM). Human secreted Frizzled-related proteins were maintained at ˜250 nM in the presence of excess 5FAM-labeled peptide (10 μM).” for “μM).”
# For FIGS. 4C and 5C, values represent the mean±s.e.m. of three independent experiments. […] Samples were resolved using a SEC3000 column (Phenomenex; Torrence, Calif.) at 0.5 mL/min in phosphate buffer saline (PBS) and fluorescence was monitored with an FP-2020 Plus fluorescence detector (Jasco Analytical Instruments, Easton, Md.) using normal mode (excitation/emission […]); gain=100; STD=32. […] Molecular weights were determined by standards (BioRad catalogue number, 151-1901) run prior to sample runs.
# [4] = tested on: FZD7, FZD4, 5 or 6 receptors stably expressed in HEK293 cells; experiment: flow cytometry of cells stably expressing gD-FZD; format: binding; details: peptide 12.5 μM
# Procedure: Cell lines stably expressing gD-FZD were grown to ˜80% confluence in DMEM:F12 (50:50) media supplemented with 10% FBS (cat. no. 1500-100; Seradigm), 1× GlutMAX (cat. no. 35050-061; Gibco) and G418 (200 μg/mL; cat. no. A1720; Sigma), released with 0.05% trypsin/EDTA in PBS (cat. no. 15400-054; Gibco), collected on ice and buffer exchanged into ice cold FACS buffer (0.5% BSA and 0.05% NaAz in PBS). 100,000 cells/well were plated into an ice cold U-bottomed plate (cat. no. 3799; Costar) and cells pelleted by centrifugation at 1200 rpm for 3 min. […] Data was collected with FACSDiva (BD; version 8.0.1) and analyzed using FLowJo (FlowJo, LLC; v10.1).
# Selective targeting of the FZD7 receptor subclass was also observed chromatographically. […] See FIGS. 4A and 4B, which provide representative fluorescence traces of 1 μM 5FAM-Fz7-21 and 1 μM 5FAM-Fz7-21S, respectively, incubated with various FZD CRD-Fc proteins (250 nM) overnight at 4° C. prior to analysis by FSEC. […] In FIG. 24A, molecular weight (MW) standards analyzed by UV absorption were plotted as a function of elution volume (Ve) over void volume (Vo). […] Measured values represent the mean±standard deviation (SD) of three independent experiments. […] Binding to recombinant FZD3 and 6 CRDs could not be assessed due to challenges with the expression of these proteins.
binding ([1]; any members of the FZD CRD family),binding to sFRPs by FSEC [3],"binding ([1]; FZD5, FZD8, FZD9 and FZD10 CRDs)","EC50 ([1]; hFZD1 CRD-Fc, hFZD2 CRD-Fc, hFZD7 CRD-Fc, and mFZD7 CRD-Fc, read-out: affinities) [µM]",Compound,complex with FZD CRD-Fc resolved by FSEC [2],binding by flow cytometry analysis [4]
no detectable binding,not found to bind,–,–,CSCC[C@H](NC(=O)[C@@H](NC(=O)[C@H](Cc1c[nH]cn1)NC(=O)[C@H](CO)NC(=O)[C@H](Cc1c[nH]c2ccccc12)NC(=O)[C@H](Cc1ccccc1)NC(=O)[C@H](CCC(=O)O)NC(=O)[C@H](CC(C)C)NC(=O)[C@H](CC(=O)O)NC(=O)[C@H](CC(=O)O)NC(=O)[C@H](CO)NC(=O)[C@@H]1CCCN1C(=O)[C@H](CC(C)C)NC(=O)c1ccc2c(c1)C(=O)OC21c2ccc(O)cc2Oc2cc(O)ccc21)C(C)C)C(=O)N[C@@H](Cc1ccc(O)cc1)C(N)=O [5FAM-Fz7-21S] (5FAM-LPSDDLEFWSHVMY-NH2; N-terminus and C-terminus assumed),no complex was observed,–
–,not found to bind,little to no binding,0.039 to 0.116,CSCC[C@H](NC(=O)[C@@H](NC(=O)[C@H](Cc1c[nH]cn1)NC(=O)[C@H](CS)NC(=O)[C@H](Cc1c[nH]c2ccccc12)NC(=O)[C@H](Cc1ccccc1)NC(=O)[C@H](CCC(=O)O)NC(=O)[C@H](CC(C)C)NC(=O)[C@H](CC(=O)O)NC(=O)[C@H](CC(=O)O)NC(=O)[C@H](CO)NC(=O)[C@@H]1CCCN1C(=O)[C@H](CC(C)C)NC(=O)c1ccc2c(c1)C(=O)OC21c2ccc(O)cc2Oc2cc(O)ccc21)C(C)C)C(=O)N[C@@H](Cc1ccc(O)cc1)C(N)=O [5FAM-Fz7-21] (5FAM-LPSDDLEFWCHVMY-NH2; N-terminus and C-terminus assumed),could be resolved,"predominant binding to FZD7 with minimal binding to FZD4, 5 or 6 receptors"

# — patent publication US20190359653A1, “SELECTIVE PEPTIDE INHIBITORS OF FRIZZLED” (Genentech, Inc., priority 2016, published 2019)
